Each compound was assayed against T1, BRD9 (Homo sapiens, UniProt Q9H8M2) (assay: HiBiT BRD9 degradation assay in 293T.166 (BRD9-HiBiT) cells). Settings: Table 1; 293T.166 cells, 2.0 hours; class symbols; read-out: HiBiT-Degradation 293T.166 BRD9 2.0 hours (DC50).
T1 sequence (Q9H8M2 1-597): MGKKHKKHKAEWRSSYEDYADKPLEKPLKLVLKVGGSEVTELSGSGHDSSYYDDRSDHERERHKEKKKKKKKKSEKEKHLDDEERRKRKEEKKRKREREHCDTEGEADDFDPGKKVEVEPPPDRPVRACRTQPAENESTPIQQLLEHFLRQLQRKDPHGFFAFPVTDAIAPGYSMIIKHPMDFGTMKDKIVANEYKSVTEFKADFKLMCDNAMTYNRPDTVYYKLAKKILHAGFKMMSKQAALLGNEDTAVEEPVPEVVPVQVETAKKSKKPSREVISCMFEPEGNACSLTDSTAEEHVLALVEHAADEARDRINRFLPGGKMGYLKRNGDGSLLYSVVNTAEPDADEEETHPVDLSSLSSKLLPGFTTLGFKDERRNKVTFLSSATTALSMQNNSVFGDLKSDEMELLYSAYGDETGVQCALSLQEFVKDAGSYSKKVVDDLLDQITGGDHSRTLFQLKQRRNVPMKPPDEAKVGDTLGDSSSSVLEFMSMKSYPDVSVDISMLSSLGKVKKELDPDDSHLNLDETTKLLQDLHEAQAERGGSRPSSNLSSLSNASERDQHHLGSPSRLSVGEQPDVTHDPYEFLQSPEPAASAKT
Assay type: cell-based
Set-up: endogenously expressing BRD9 with HiBiT fusion tag via CRISPR; host or cells: 293T.166 (BRD9-HiBiT), also expressing LgBiT ectopically
Protocol: Selected compounds were tested in a BRD9 degradation assay using the HiBit Method.
Dulbecco's modified Eagle medium (DMEM) without phenol red and fetal bovine serum (FBS) were purchased from Gibco (Grand Island, N.Y., USA). Nano-Glo® HiBiT Lytic Assay System was purchased from Promega (Madison, Wis., USA). 293T.166 (BRD9-HiBiT) cell line, endogenously expressing BRD9 with HiBiT fusion tag via CRISPR and ectopically expressing LgBiT tag, was purchased from Promega (Madison, Wis., USA). 293T.167 (BRD7-HiBiT) cell line, endogenously expressing BRD7 with HiBiT fusion tag via CRISPR and ectopically expressing LgBiT tag, was purchased from Promega (Madison, Wis., USA). 293T.92 (BRD4-HiBiT) cell line, endogenously expressing BRD4 with HiBiT fusion tag via CRISPR and ectopically expressing LgBiT tag, was generated in-house. Cell culture flasks and 384-well microplates were acquired from VWR (Radnor, Pa., USA).
BRD9 degradation was determined based on quantification of luminescent signal using Nano-Glo® HiBiT Lytic Assay kit. Test compounds were added to the 384-well plate from a top concentration of 10 μM with 11 points, half log titration in duplicates. 293T.166 cells were added into 384-well plates at a cell density of 10,000 cells per well. The plates were kept at 37° C. with 5% CO2 for 2 hours. BRD7 and BRD4 degradation was similarly determined with 293T.167 cells and 293T.92 cells, respectively. The cells treated in the absence of the test compound were the negative control and the cells without Nano-Glo® HiBiT Lytic reagent were the positive control. After 2-hour incubation, Nano-Glo® HiBiT Lytic Assay reagents were added to the cells. Luminescence was acquired on EnVision™ Multilabel Reader (PerkinElmer, Santa Clara, Calif., USA).

Structure (SMILES) | DC50 [nM]
Cn1cc(-c2cc(Cl)c(C(=O)N3CCN(C(=O)CN4CCC(c5ccc(NC6CCC(=O)NC6=O)cc5)CC4)CC3)cc2Cl)c2cn[nH]c2c1=O (stereo not shown) [Compound 48] | 100 to 500
COc1cc(-c2cn(C)c(=O)c3[nH]ncc23)cc(Cl)c1CN1CCN(C(=O)CC2CCN(c3ccc(NC4CCC(=O)NC4=O)cc3C(F)(F)F)CC2)CC1 (stereo not shown) [Compound 53] | < 100
COc1cc(-c2cn(C)c(=O)c3cnccc23)cc(OC)c1CN1CCN(C(=O)CC2CCN(c3ccc(NC4CCC(=O)NC4=O)cc3C(F)(F)F)CC2)CC1 (stereo not shown) [Compound 54] | < 100
COc1cc(-c2cn(C)c(=O)c3[nH]ncc23)cc(OC)c1CN1CCN(C(=O)CC2CCN(c3ccc(NC4CCC(=O)NC4=O)cc3C(F)(F)F)CC2)C(C)(C)C1 (stereo not shown) [Compound 57] | < 100
COc1cc(-c2cn(C)c(=O)c3[nH]ncc23)cc(OC)c1CN1CCN(C(=O)CC2CCN(c3ccc(NC4CCC(=O)NC4=O)cc3C(F)(F)F)CC2)CC12CC2 (stereo not shown) [Compound 58] | < 100
COc1cc(-c2cn(C)c(=O)c3cnccc23)cc(OC)c1CN1CCN(C(=O)CC2CCN(c3ccc(NC4CCC(=O)NC4=O)cc3C(F)(F)F)CC2)CC12CC2 (stereo not shown) [Compound 59] | < 100
COc1cc(-c2cn(C)c(=O)c(C)c2C)cc(OC)c1CN1CCN(C(=O)CC2CCN(c3ccc(NC4CCC(=O)NC4=O)cc3C(F)(F)F)CC2)CC12CC2 (stereo not shown) [Compound 60] | < 100
COc1cc(-c2cn(C)c(=O)c(C)c2C)cc(OC)c1CN1CCN(C(=O)CC2CCN(c3ccc(NC4CCC(=O)NC4=O)cc3C(F)(F)F)CC2)CC1 (stereo not shown) [Compound 61] | < 100
COc1cc(-c2cn(C)c(=O)c3ccccc23)cc(OC)c1CN1CCN(C(=O)CC2CCN(c3ccc(NC4CCC(=O)NC4=O)cc3C(F)(F)F)CC2)CC1 (stereo not shown) [Compound 62] | < 100
COc1cc(-c2cn(C)c(=O)c(C)c2C)cc(OC)c1CN1C2CCC1CN(C(=O)CC1CCN(c3ccc(NC4CCC(=O)NC4=O)cc3C(F)(F)F)CC1)C2 (stereo not shown) [Compound 63, 3-[4-[4-[2-[8-[[2,6-dimethoxy-4-(1,4,5-trimethyl-6-oxo-3-pyridyl)phenyl]methyl]-3,8-diazabicyclo[3.2.1]octan-3-yl]-2-oxo-ethyl]-1-piperidyl]-3-(trifluoromethyl)anilino]piperidine-2,6-dione] | < 100
COc1cc(-c2cn(C)c(=O)c3ccccc23)cc(OC)c1CN1C2CCC1CN(C(=O)CC1CCN(c3ccc(NC4CCC(=O)NC4=O)cc3C(F)(F)F)CC1)C2 (stereo not shown) [Compound 64] | < 100
COc1cc(-c2cn(C)c(=O)c(C)c2C)cc(OC)c1CN1C2CCC1CN(C(=O)CC1CCN(c3ccc(NC4CCC(=O)NC4=O)cc3F)CC1)C2 (stereo not shown) [Compound 65] | < 100
COc1cc(-c2cn(C)c(=O)c3[nH]ncc23)cc(Cl)c1CN1CCN(C(=O)CC2CCN(c3ccc(NC4CCC(=O)NC4=O)cc3F)CC2)CC1 (stereo not shown) [Compound 66] | < 100
COc1cc(-c2cn(C)c(=O)c3[nH]ncc23)cc(OC)c1CN1CCN(C(=O)CC2CCN(c3ccc(NC4CCC(=O)NC4=O)cc3Cl)CC2)CC1 (stereo not shown) [Compound 67] | < 100
COc1cc(-c2cn(C)c(=O)c3[nH]ncc23)cc(OC)c1CN1CCN(C(=O)CC2(O)CCN(c3ccc(NC4CCC(=O)NC4=O)cc3C(F)(F)F)CC2)CC1 (stereo not shown) [Compound 68, 3-[4-[4-[2-[4-[[2,6-dimethoxy-4-(6-methyl-7-oxo-1H-pyrazolo[3,4-c]pyridin-4-yl)phenyl]methyl]piperazin-1-yl]-2-oxo-ethyl]-4-hydroxy-1-piperidyl]-3-(trifluoromethyl)anilino]piperidine-2,6-dione] | < 100
COc1cc(-c2cn(C)c(=O)c3[nH]ncc23)cc(OC)c1CN1CCC(C2CCN(c3ccc(NC4CCC(=O)NC4=O)cc3)CC2)CC1 (stereo not shown) [Compound 70, 3-[4-[4-[1-[[2,6-dimethoxy-4-(6-methyl-7-oxo-1H-pyrazolo[3,4-c]pyridin-4-yl)phenyl]methyl]-4-piperidyl]-1-piperidyl]anilino]piperidine-2,6-dione] | < 100
COc1cc(-c2cn(C)c(=O)c3[nH]ncc23)cc(Cl)c1CN1CCC(C2CCN(c3ccc(NC4CCC(=O)NC4=O)cc3)CC2)CC1 (stereo not shown) [Compound 71] | < 100
COc1cc(-c2cn(C)c(=O)c3cnccc23)cc(Cl)c1CN1CCC(C2CCN(c3ccc(NC4CCC(=O)NC4=O)cc3)CC2)CC1 (stereo not shown) [Compound 72] | < 100
COc1cc(-c2cn(C)c(=O)c3[nH]ncc23)cc(Cl)c1CN1CCC(C2CCN(c3ccc(NC4CCC(=O)NC4=O)cc3F)CC2)CC1 (stereo not shown) [Compound 73, 3-[4-[4-[1-[[2-chloro-6-methoxy-4-(6-methyl-7-oxo-1H-pyrazolo[3,4-c]pyridin-4-yl)phenyl]methyl]-4-piperidyl]-1-piperidyl]-3-fluoro-anilino]piperidine-2,6-dione] | < 100
COc1cc(-c2cn(C)c(=O)c(C)c2C)cc(Cl)c1CN1CCC(C2CCN(c3ccc(NC4CCC(=O)NC4=O)cc3F)CC2)CC1 (stereo not shown) [Compound 74] | < 100

Continued, values first:

DC50 [nM] | Structure (SMILES)
< 100 | COc1cc(-c2cn(C)c(=O)c3[nH]ncc23)cc(OC)c1CN1CCN(CCCC(=O)N2CCC(c3ccc(NC4CCC(=O)NC4=O)cc3)CC2)CC1 (stereo not shown) [Compound 40]
< 100 | COc1cc(-c2cn(C)c(=O)c3[nH]ncc23)cc(OC)c1CN1CCN(C(=O)Cc2ccc(NC3CCC(=O)NC3=O)cc2F)CC1 (stereo not shown) [Compound 41, 3-[4-[2-[4-[[2,6-dimethoxy-4-(6-methyl-7-oxo-1H-pyrazolo[3,4-c]pyridin-4-yl)phenyl]methyl]piperazin-1-yl]-2-oxo-ethyl]-3-fluoro-anilino]piperidine-2,6-dione]
< 100 | COc1cc(-c2cn(C)c(=O)c3[nH]ncc23)cc(Cl)c1CN1CCC(CC(=O)N2CCC(c3ccc(NC4CCC(=O)NC4=O)cc3)CC2)CC1 (stereo not shown) [Compound 43]
< 100 | COc1cc(-c2cn(C)c(=O)c3cnccc23)cc(Cl)c1CN1CCC(CC(=O)N2CCC(c3ccc(NC4CCC(=O)NC4=O)cc3)CC2)CC1 (stereo not shown) [Compound 44]
< 100 | COc1cc(-c2cn(C)c(=O)c3[nH]ncc23)cc(Cl)c1CN1CCC(CC(=O)N2CCC(c3ccc(NC4CCC(=O)NC4=O)cc3)C(F)(F)C2)CC1 (stereo not shown) [Compound 45]
< 100 | COc1cc(-c2cn(C)c(=O)c3[nH]ncc23)cc(OC)c1C(=O)N1CCN(C(=O)CN2CCC(c3ccc(NC4CCC(=O)NC4=O)cc3)CC2)CC1 (stereo not shown) [Compound 46, 3-[4-[1-[2-[4-[2,6-dimethoxy-4-(6-methyl-7-oxo-1H-pyrazolo[3,4-c]pyridin-4-yl)benzoyl]piperazin-1-yl]-2-oxo-ethyl]-4-piperidyl]anilino]piperidine-2,6-dione]
< 100 | COc1cc(-c2cn(C)c(=O)c3[nH]ncc23)cc(F)c1C(=O)N1CCN(C(=O)CN2CCC(c3ccc(NC4CCC(=O)NC4=O)cc3)CC2)CC1 (stereo not shown) [Compound 47]
< 100 | COc1cc(-c2cn(C)c(=O)c3[nH]ncc23)cc(F)c1CN1CCN(C(=O)CC2CCN(c3ccc(NC4CCC(=O)NC4=O)cc3)CC2)CC1 (stereo not shown) [Compound 49, 3-[4-[4-[2-[4-[[2-fluoro-6-methoxy-4-(6-methyl-7-oxo-1H-pyrazolo[3,4-c]pyridin-4-yl)phenyl]methyl]piperazin-1-yl]-2-oxo-ethyl]-1-piperidyl]anilino]piperidine-2,6-dione]
< 100 | COc1cc(-c2cn(C)c(=O)c3[nH]ncc23)cc(OC)c1CN1CCN(C(=O)CC2CCN(c3ccc(NC4CCC(=O)NC4=O)cc3)CC2)CC1 (stereo not shown) [Compound 50]
< 100 | Cn1cc(-c2ccc(CN3CCN(C(=O)CC4CCN(c5ccc(NC6CCC(=O)NC6=O)cc5)CC4)CC3)c(OC(F)(F)F)c2)c2cn[nH]c2c1=O (stereo not shown) [Compound 51]
< 100 | COc1cc(-c2cn(C)c(=O)c3[nH]ncc23)cc(OC)c1CN1CCN(C(=O)CC2CCN(c3ccc(NC4CCC(=O)NC4=O)cc3C(F)(F)F)CC2)CC1 (stereo not shown) [Compound 52, 3-[4-[4-[2-[4-[[2,6-dimethoxy-4-(6-methyl-7-oxo-1H-pyrazolo[3,4-c]pyridin-4-yl)phenyl]methyl]piperazin-1-yl]-2-oxo-ethyl]-1-piperidyl]-3-(trifluoromethyl)anilino]piperidine-2,6-dione]

Source: US11691972B2, “Compounds for targeted degradation of BRD9” (C4 Therapeutics, Inc., priority 2020, dated 2023)
